Structures can show the parent of a compound that is named as a salt.
These compounds were tested against T1, MGDG synthase in isolated spinach chloroplast envelope membranes (Spinacia oleracea, UniProt Q9SM44) (assay: MGDG synthase activity in envelope membrane fractions isolated from spinach chloroplasts). Conditions: Table 1, obtained in the same manner as FIG. 4; read-out: Inhibitory effect on MGDG synthesis in isolated spinach chloroplast envelope membranes.
T1 construct: envelope membranes purified from the lysate by sucrose centrifugation gradient; from tissue; host or cells: envelope membranes of chloroplasts from spinach leaves
T1 sequence (Q9SM44 99-522): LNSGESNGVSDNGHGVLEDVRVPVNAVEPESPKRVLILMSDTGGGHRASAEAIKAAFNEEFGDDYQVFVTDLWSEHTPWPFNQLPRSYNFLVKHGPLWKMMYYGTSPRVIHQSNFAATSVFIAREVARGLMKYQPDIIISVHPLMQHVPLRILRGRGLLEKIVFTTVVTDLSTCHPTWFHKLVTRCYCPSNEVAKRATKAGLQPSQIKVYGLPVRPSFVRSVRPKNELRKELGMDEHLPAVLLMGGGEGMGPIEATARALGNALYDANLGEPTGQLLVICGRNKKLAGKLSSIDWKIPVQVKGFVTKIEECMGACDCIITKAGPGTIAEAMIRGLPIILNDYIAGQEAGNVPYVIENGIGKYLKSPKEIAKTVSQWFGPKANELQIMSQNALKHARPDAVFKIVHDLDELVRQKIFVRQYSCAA
Type: biochemical
Text: All the operations have been carried out as described in the article by Maréchal, E. et al., J. Biol. Chem., 1995, 270, 5714-5722. Crude chloroplasts were obtained from 3-4 kg of spinach leaves and purified by isopycnic centrifugation using Percoll gradients. Purified intact chloroplasts have then been lysed in hypotonic medium and envelope membranes purified from the lysate by sucrose centrifugation gradient as described in the article by Douce, R. and Joyard, J., (1982) in Methods in Chloroplast Molecular Biology (Edelman, M., Hallick R and Chua N H eds), pp 239-256, Elsevier Science Publishers B.V. Amsterdam.
MGDG synthase activity was assayed as described in the article by Maréchal et al. (1995).

Row | Compound | IC50
1 | O=C(OCCN(Cc1ccccc1)c1ccccc1)N1CCC(n2c(=O)[nH]c3ccccc32)CC1 [Compound 35, 2-(N-benzyl-N-phenylamino)ethyl 4-(1,2-dihydro-2-oxobenzo[d]imidazol-3-yl)piperidine-1-carboxylate] | 40 µM
2 | C[C@@H](COC(=O)N1CCC(n2c(=O)[nH]c3ccccc32)CC1)N(Cc1ccccc1)Cc1ccc(Br)cc1 [Compound 41, (S)-2-(benzyl(4-bromobenzyl)amino)propyl 4-(2-oxo-2,3-dihydro-1H-benzo[d]imidazol-1-yl)piperidine-1-carboxylate hydrochloride] | 50 µM
3 | C[C@@H](COC(=O)N1CCCC(n2c(=O)[nH]c3ccccc32)CC1)N(Cc1ccccc1)Cc1ccccc1 (stereo partly drawn) [Compound 4, (S)-2-(dibenzylamino)propyl 4-(1,2-dihydro-2-oxobenzo[d]imidazol-3-yl)azepane-1-carboxylate] | 200 µM
4 | COc1ccccc1CN(CCOC(=O)N1CCC(n2c(=O)[nH]c3ccccc32)CC1)Cc1ccccc1 [Compound 75, 2-(benzyl(2-methoxybenzyl)amino)ethyl 4-(2-oxo-2,3-dihydro-1H-benzo[d]imidazol-1-yl)piperidine-1-carboxylate] | 10 µM
5 | O=C(OCCN(Cc1ccccc1)Cc1ccc([N+](=O)[O-])cc1)N1CCC(n2c(=O)[nH]c3ccccc32)CC1 [Compound 28, 2-(N-(4-nitrobenzyl)-N-benzylamino)ethyl 4-(1,2-dihydro-2-oxobenzo[d]imidazol-3-yl)piperidine-1-carboxylate] | 20 µM
6 | O=C(OCCCN(Cc1ccccc1)Cc1cccc(OCc2ccccc2)c1)N1CCC(n2c(=O)[nH]c3ccccc32)CC1 [Compound 84, 3-(benzyl(3-(benzyloxy)benzyl)amino)propyl 4-(2-oxo-2,3-dihydro-1H-benzo[d]imidazol-1-yl)piperidine-1-carboxylate] | 45 µM
7 | O=C(OCCN(Cc1ccccc1)Cc1cccc(Cl)c1)N1CCC(n2c(=O)[nH]c3ccccc32)CC1 [Compound 50, 2-(benzyl(3-chlorobenzyl)amino)ethyl 4-(2-oxo-2,3-dihydro-1H-benzo[d]imidazol-1-yl)piperidine-1-carboxylate hydrochloride] | 8 µM
8 | O=C(OCCN(Cc1ccccc1)Cc1ccc(OCc2ccccc2)cc1)N1CCC(n2c(=O)[nH]c3ccccc32)CC1 [Compound 77, 2-(benzyl(4-(benzyloxy)benzyl)amino)ethyl 4-(2-oxo-2,3-dihydro-1H-benzo[d]imidazol-1-yl)piperidine-1-carboxylate] | 30 µM
9 | CC(C)C[C@@H](COC(=O)N1CCC(n2c(=O)[nH]c3ccccc32)CC1)NCc1ccccc1 [Compound 87, (S)-2-(benzylamino)-4-methylpentyl 4-(2-oxo-2,3-dihydro-1H-benzo[d]imidazol-1-yl)piperidine-1-carboxylate] | 45 µM
10 | O=C(OCCN(C/C=C/c1ccccc1)Cc1ccccc1)N1CCC(n2c(=O)[nH]c3ccccc32)CC1 [Compound 82, (E)-2-(benzyl(cinnamyl)amino)ethyl 4-(2-oxo-2,3-dihydro-1H-benzo[d]imidazol-1-yl)piperidine-1-carboxylate] | 50 µM
11 | CC(C)C[C@@H](COC(=O)N1CCC(n2c(=O)[nH]c3ccccc32)CC1)N(Cc1ccccc1)C(=O)OC(C)(C)C [Compound 85, (S)-2-(benzyl(tert-butoxycarbonyl)amino)-4-methylpentyl 4-(2-oxo-2,3-dihydro-1H-benzo[d]imidazol-1-yl)piperidine-1-carboxylate] | 10 µM
12 | Cn1c(CN(CCCOC(=O)N2CCC(n3c(=O)[nH]c4ccccc43)CC2)Cc2ccccc2)cc2ccccc21 [Compound 72, 3-(benzyl((1-methyl-1H-indol-2-yl)methyl)amino)propyl 4-(2-oxo-2,3-dihydro-1H-benzo[d]imidazol-1-yl)piperidine-1-carboxylate hydrochloride] | 50 µM
13 | CCN(CCOC(=O)N1CCC(n2c(=O)[nH]c3ccccc32)CC1)c1ccccc1 [Compound 17, 2-(ethyl(phenyl)amino)ethyl 4-(2-oxo-2,3-dihydro-1H-benzo[d]imidazol-1-yl)piperidine-1-carboxylate] | 200 µM

Now from value to compound:

Row | IC50 | Compound
14 | 15 µM | O=C(OCCCN(Cc1ccccc1)Cc1cccc(Oc2ccccc2)c1)N1CCC(n2c(=O)[nH]c3ccccc32)CC1 [Compound 73, 3-(benzyl(3-phenoxybenzyl)amino)propyl 4-(2-oxo-2,3-dihydro-1H-benzo[d]imidazol-1-yl)piperidine-1-carboxylate hydrochloride]
15 | 100 to 500 µM | C[C@@H](COC(=O)N1CCC(n2cnc3ccccc32)CC1)N(Cc1ccccc1)Cc1ccccc1 [Compound 1, (S)-2-(dibenzylamino)propyl 4-(1H-benzo[d]imidazol-1-yl)piperidine-1-carboxylate]
16 | 50 µM | CC(C)(C)C(COC(=O)N1CCC(n2c(=O)[nH]c3ccccc32)CC1)N(Cc1ccccc1)Cc1ccccc1 (centres unmarked) [Compound 31, 2-(dibenzylamino)-3,3-dimethylbutyl 4-(1,2-dihydro-2-oxobenzo[d]imidazol-3-yl)piperidine-1-carboxylate]
17 | 30 µM | O=C(OCCCN(Cc1ccccc1)Cc1cccc(Cl)c1)N1CCC(n2c(=O)[nH]c3ccccc32)CC1 [Compound 69, 3-(benzyl(3-chlorobenzyl)amino)propyl 4-(2-oxo-2,3-dihydro-1H-benzo[d]imidazol-1-yl)piperidine-1-carboxylate hydrochloride]
18 | 45 µM | O=C(OCCCN(Cc1ccccc1)Cc1ccccc1)N1CCC(n2c(=O)[nH]c3ccccc32)CC1 [Compound 10, 3-(dibenzylamino)propyl 4-(1,2-dihydro-2-oxobenzo[d]imidazol-3-yl)piperidine-1-carboxylate]
19 | 45 µM | O=C(OCCN(Cc1ccccc1)Cc1ccncc1)N1CCC(n2c(=O)[nH]c3ccccc32)CC1 [Compound 44, 2-(benzyl(pyridin-4-ylmethyl)amino)ethyl 4-(2-oxo-2,3-dihydro-1H-benzo[d]imidazol-1-yl)piperidine-1-carboxylate]
20 | 50 µM | C[C@@H](CNC(=S)N1CCC(n2c(=O)[nH]c3ccccc32)CC1)N(Cc1ccccc1)Cc1ccccc1 [Compound 23, N—((S)-2-(dibenzylamino)propyl)-4-(1,2-dihydro-2-oxobenzo[d]imidazol-3-yl)piperidine-1-carbothioamide]
21 | 40 µM | C[C@@H](COC(=O)N1CCC(n2c(=O)[nH]c3ccccc32)CC1)N(Cc1ccccc1)Cc1cccc(Oc2ccccc2)c1 [Compound 55, (S)-2-(benzyl(3-phenoxybenzyl)amino)propyl 4-(2-oxo-2,3-dihydro-1H-benzo[d]imidazol-1-yl)piperidine-1-carboxylate hydrochloride]
22 | 50 µM | C[C@@H](COC(=O)N1CCC(n2c(=O)n(C(=O)c3ccccc3)c3ccccc32)CC1)N(Cc1ccccc1)Cc1ccccc1 [Compound 21, (S)-2-(dibenzylamino)propyl 4-(1,2-dihydro-2-oxo-1-(benzoyl)benzo[d]imidazol-3-yl)piperidine-1-carboxylate]
23 | 15 µM | O=C(OCCN(CCCc1ccccc1)Cc1ccccc1)N1CCC(n2c(=O)[nH]c3ccccc32)CC1 [Compound 46, 2-(benzyl(3-phenylpropyl)amino)ethyl 4-(2-oxo-2,3-dihydro-1H-benzo[d]imidazol-1-yl)piperidine-1-carboxylate hydrochloride]
